Experimental data reported in article PMC9570041, “Synthesis of Novel α-Trifluoroanisole Derivatives Containing Phenylpyridine Moieties with Herbicidal Activity” (International Journal of Molecular Sciences, 2022).
Read-outs that look alike come from different tables or passages of the source.

Biological target: T1, Nicotiana tabacum protoporphyrinogen oxidase (NtPPO) (Nicotiana tabacum, UniProt O24164)
T1 construct: gene PPXII
T1 sequence (O24164 1-504): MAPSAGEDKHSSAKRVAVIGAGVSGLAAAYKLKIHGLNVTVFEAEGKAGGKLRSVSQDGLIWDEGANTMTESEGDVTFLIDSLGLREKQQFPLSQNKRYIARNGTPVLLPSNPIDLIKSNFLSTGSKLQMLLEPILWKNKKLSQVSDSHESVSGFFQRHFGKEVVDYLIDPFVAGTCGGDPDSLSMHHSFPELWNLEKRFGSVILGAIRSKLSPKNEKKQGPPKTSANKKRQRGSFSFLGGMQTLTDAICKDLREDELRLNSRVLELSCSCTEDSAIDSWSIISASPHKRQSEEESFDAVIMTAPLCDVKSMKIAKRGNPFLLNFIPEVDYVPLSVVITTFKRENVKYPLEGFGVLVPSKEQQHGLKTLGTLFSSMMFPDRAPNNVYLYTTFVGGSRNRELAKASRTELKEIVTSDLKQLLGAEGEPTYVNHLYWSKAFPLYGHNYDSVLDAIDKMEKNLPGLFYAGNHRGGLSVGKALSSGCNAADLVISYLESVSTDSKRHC
Assay: NtPPO inhibition in vitro, protoporphyrin IX formation by absorbance at […] nm
Format: biochemical

In the case of `FC(F)(F)Oc1ccc(COc2ccc(-c3ncc(C(F)(F)F)cc3Cl)cc2)cc1` [7a, 3-Chloro-2-(4-((4-(trifluoromethoxy)benzyl)oxy)phenyl)-5-(trifluoromethyl)pyridine], the IC50 is reported as 9.4 ± 2.2 nM.

`CS(=O)(=O)NC(=O)c1cc(Oc2ccc(C(F)(F)F)cc2Cl)ccc1[N+](=O)[O-]` [fomesafen] showed an IC50 (read-out: IC50) of 110 ± 1.2 nM.
